# Measured values taken from patent US20150011740A1, “FLUORINE-CONTAINING WATER SOLUBLE PLATINUM COMPLEXES FOR TUMOR TREATMENT AND PROCESS OF PREPARING SAME” (GUDUI BIOPHARMA TECHNOLOGY INC., priority 2011, published 2015).
# Read-outs that look alike come from different tables or passages of the source.
# Assays:
# L1210 tumor cells = test: Experiment-3: antitumor efficacy in L1210 tumor-bearing CDF1 mice (ILS); assay type: in vivo; settings: for Weight Changes: first day to seventh day
# Procedure: In the following test, antitumor efficacy studies were performed using 8-9 weeks old female CDF1 mice, the average weight of the animal is 20-25 grams (The experimental animals were purchased from Vital River Laboratory Animal Technology Co. Ltd.). L1210 tumor cells (about 10^5 cells per mouse) were inoculated intraperitoneally. The fluorine-containing water-soluble platinum complexes were used to treat the tumor-bearing animals and the efficacy was compared with the clinical platinum antitumor drugs. […] Drugs were administered intraperitoneally on day 1 and day 4 after tumor cell transplantation. The number of experimental animals in each group was 6.
# The increase in life span (ILS) is calculated as follows:
# Wherein, St=the weighted median survival time of treated animals; Su=the weighted median survival time of untreated animals
# [1] = background data of clinical drugs; cited from earlier work
# [2] = Experiment-1: solubility in water at room temperature
# physchem = settings: buffer, pH 7
# [3] = Experiment-2: stability, half-life in phosphate buffer (PBS) pH 7 at room temperature; settings: phosphate buffer (PBS) pH 7, room temperature
# [4] = buffer, pH 7
# [5] = 1.25 mg/Kg i.p. day 1 and day 4
compound,measurement,setting,value
"N.N.O=C([O-])C1(C(=O)[O-])CCC1.[Pt+2] [Carboplatin, carboplatin]",ILS,L1210 tumor cells; 20 mg/Kg i.p. day 1 and day 4,10%
same,Survival Animals on Day 42,L1210 tumor cells; 20 mg/Kg i.p. day 1 and day 4,0/6
same,Weight Changes,L1210 tumor cells; 20 mg/Kg i.p. day 1 and day 4,+0 g
same,ILS,L1210 tumor cells; 40 mg/Kg i.p. day 1 and day 4,24%
same,Survival Animals on Day 42,L1210 tumor cells; 40 mg/Kg i.p. day 1 and day 4,0/6
same,Weight Changes,L1210 tumor cells; 40 mg/Kg i.p. day 1 and day 4,-0.3 g
same,ILS,L1210 tumor cells; 80 mg/Kg i.p. day 1 and day 4,55%
same,Survival Animals on Day 42,L1210 tumor cells; 80 mg/Kg i.p. day 1 and day 4,0/6
same,Weight Changes,L1210 tumor cells; 80 mg/Kg i.p. day 1 and day 4,-1.2 g
same,Water Solubility,[1],17.0 mg/mL
same,solubility,[2],17.0 mg/1 mL H2O
"N.N.[Cl][Pt][Cl] [Cisplatin, cisplatin]",ILS,L1210 tumor cells; [5],36%
same,Survival Animals on Day 42,L1210 tumor cells; [5],0/6
same,ILS,L1210 tumor cells; 2.5 mg/Kg i.p. day 1 and day 4,100%
same,Survival Animals on Day 42,L1210 tumor cells; 2.5 mg/Kg i.p. day 1 and day 4,0/6
same,Survival Animals on Day 42,L1210 tumor cells; 5.0 mg/Kg i.p. day 1 and day 4,3/6
"[NH2][Pt]1([NH2])[O]C(=O)C(F)(CCOC2O[C@H](CO)[C@@H](O)[C@H](O)[C@H]2O)C(=O)[O]1 (stereo partly drawn) [Example 3, diamine Pt (II) (1-O-D-glucoside-propane-3-fluoro-3,3-dicarboxylate)]",half-life,physchem,52 h
"O=C1[O][Pt]([NH]C2CC2)([NH]C2CC2)[O]C(=O)C1(F)CCOC1O[C@H](CO)[C@@H](O)[C@H](O)[C@H]1O (stereo partly drawn) [Example 17, dicyclopropylamino platinum (II) (1-O-D-glucoside-propane-3-fluoro-3,3-dicarboxylate)]",half-life,physchem,62 h
"O=C1[O][Pt]2([NH][C@@H]3CCCC[C@H]3[NH]2)[O]C(=O)C1(F)COC1O[C@H](CO)[C@@H](O)[C@H](O)[C@H]1O (stereo partly drawn) [Example 23, cis-[trans-(1R,2R)-diaminocyclohexane]platinum (II) (1-O-D-glucoside-ethane-2-fluoro-2,2-dicarboxylate)]",half-life,physchem,89 h
"[NH2][Pt]1([NH2])[O]C(=O)C(F)(COC2O[C@H](CO)[C@@H](O)[C@H](O)[C@H]2O)C(=O)[O]1 (stereo partly drawn) [Example 24, diamine platinum (II) (1-O-D-glucoside-ethane-2-fluoro-2,2-dicarboxylate)]",half-life,physchem,73 h
"O=C1[O][Pt]2([NH][C@@H]3CCCC[C@H]3[NH]2)[O]C1=O [Oxaliplatin, oxaliplatin]",half-life,[3],24 h
"cis-[trans-(1R,2R)-diaminocyclohexane] Pt (II) (1-O-D-glucoside-propane-3-fluoro-3,3-dicarboxylate) [Example 1]",half-life,[3],44 h
"cis-[trans-(1R,2R)-diaminocyclohexane] Pt (II) (1-O-D-mannoside-propane-3-fluoro-3,3-dicarboxylate) [Example 9]",half-life,[4],48 h
